{"source": "ChEMBL document CHEMBL3232841", "about": "“New aminobenzenesulfonamide-thiourea conjugates: synthesis and carbonic anhydrase inhibition and docking studies” (Eur J Med Chem, 2014)"}
{"target": "Carbonic anhydrase 2 (Bos taurus, UniProt P00921)", "sequence (P00921 whole entry)": "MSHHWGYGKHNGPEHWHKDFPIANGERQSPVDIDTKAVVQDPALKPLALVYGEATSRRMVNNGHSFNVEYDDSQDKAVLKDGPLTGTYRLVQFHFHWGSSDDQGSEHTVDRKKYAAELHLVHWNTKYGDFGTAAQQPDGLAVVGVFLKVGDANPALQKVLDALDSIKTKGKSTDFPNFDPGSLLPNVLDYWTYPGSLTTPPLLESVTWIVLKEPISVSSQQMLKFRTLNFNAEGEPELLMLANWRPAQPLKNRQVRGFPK", "experiment": "Inhibition of bovine erythrocyte carbonic anhydrase 2 using p-nitrophenyl acetate as substrate preincubated for 10 mins before substrate addition measured after 30 mins by spectrophotometric analysis", "units": {"IC50": "µM"}}
{"smiles": "NS(=O)(=O)c1cccc(NC(=S)NC(=O)c2cccs2)c1", "IC50": 0.052}
{"smiles": "NS(=O)(=O)c1cccc(NC(=S)NC(=O)C23CC4CC(CC(C4)C2)C3)c1", "IC50": 5.58}
{"smiles": "NS(=O)(=O)c1cccc(NC(=S)NC(=O)c2cccc(Cl)c2)c1", "IC50": 0.22}
{"smiles": "NS(=O)(=O)c1cccc(NC(=S)NC(=O)c2cc([N+](=O)[O-])cc([N+](=O)[O-])c2)c1", "IC50": 14.2}
{"smiles": "NS(=O)(=O)c1ccc(NC(=S)NC(=O)c2cc3ccccc3oc2=O)cc1", "IC50": 11.3}
{"smiles": "NS(=O)(=O)c1cccc(NC(=S)NC(=O)c2ccco2)c1", "IC50": 9.76}
{"smiles": "NS(=O)(=O)c1cccc(NC(=S)NC(=O)c2cc3ccccc3oc2=O)c1", "IC50": 13.4}
{"smiles": "NS(=O)(=O)c1ccc(NC(=S)NC(=O)c2cccs2)cc1", "IC50": 0.011}
{"smiles": "NS(=O)(=O)c1cccc(NC(=S)NC(=O)c2ccccc2Cl)c1", "IC50": 13.5}
{"smiles": "NS(=O)(=O)c1cccc(NC(=S)NC(=O)c2ccc(Cl)cc2)c1", "IC50": 5.64}
{"smiles": "NS(=O)(=O)c1cccc(NC(=S)NC(=O)c2ccc(Cl)cc2Cl)c1", "IC50": 17.1}
{"smiles": "CC(C)(C)C(=O)NC(=S)Nc1cccc(S(N)(=O)=O)c1", "IC50": 1.28}
{"smiles": "NS(=O)(=O)c1cccc(NC(=S)NC(=O)c2cccc([N+](=O)[O-])c2)c1", "IC50": 0.49}
